Structures are written as SMILES. Counter-ions that a name gives are not always drawn.

T1 sequence (P13569 with tags, fused parts or gaps DEL508-508): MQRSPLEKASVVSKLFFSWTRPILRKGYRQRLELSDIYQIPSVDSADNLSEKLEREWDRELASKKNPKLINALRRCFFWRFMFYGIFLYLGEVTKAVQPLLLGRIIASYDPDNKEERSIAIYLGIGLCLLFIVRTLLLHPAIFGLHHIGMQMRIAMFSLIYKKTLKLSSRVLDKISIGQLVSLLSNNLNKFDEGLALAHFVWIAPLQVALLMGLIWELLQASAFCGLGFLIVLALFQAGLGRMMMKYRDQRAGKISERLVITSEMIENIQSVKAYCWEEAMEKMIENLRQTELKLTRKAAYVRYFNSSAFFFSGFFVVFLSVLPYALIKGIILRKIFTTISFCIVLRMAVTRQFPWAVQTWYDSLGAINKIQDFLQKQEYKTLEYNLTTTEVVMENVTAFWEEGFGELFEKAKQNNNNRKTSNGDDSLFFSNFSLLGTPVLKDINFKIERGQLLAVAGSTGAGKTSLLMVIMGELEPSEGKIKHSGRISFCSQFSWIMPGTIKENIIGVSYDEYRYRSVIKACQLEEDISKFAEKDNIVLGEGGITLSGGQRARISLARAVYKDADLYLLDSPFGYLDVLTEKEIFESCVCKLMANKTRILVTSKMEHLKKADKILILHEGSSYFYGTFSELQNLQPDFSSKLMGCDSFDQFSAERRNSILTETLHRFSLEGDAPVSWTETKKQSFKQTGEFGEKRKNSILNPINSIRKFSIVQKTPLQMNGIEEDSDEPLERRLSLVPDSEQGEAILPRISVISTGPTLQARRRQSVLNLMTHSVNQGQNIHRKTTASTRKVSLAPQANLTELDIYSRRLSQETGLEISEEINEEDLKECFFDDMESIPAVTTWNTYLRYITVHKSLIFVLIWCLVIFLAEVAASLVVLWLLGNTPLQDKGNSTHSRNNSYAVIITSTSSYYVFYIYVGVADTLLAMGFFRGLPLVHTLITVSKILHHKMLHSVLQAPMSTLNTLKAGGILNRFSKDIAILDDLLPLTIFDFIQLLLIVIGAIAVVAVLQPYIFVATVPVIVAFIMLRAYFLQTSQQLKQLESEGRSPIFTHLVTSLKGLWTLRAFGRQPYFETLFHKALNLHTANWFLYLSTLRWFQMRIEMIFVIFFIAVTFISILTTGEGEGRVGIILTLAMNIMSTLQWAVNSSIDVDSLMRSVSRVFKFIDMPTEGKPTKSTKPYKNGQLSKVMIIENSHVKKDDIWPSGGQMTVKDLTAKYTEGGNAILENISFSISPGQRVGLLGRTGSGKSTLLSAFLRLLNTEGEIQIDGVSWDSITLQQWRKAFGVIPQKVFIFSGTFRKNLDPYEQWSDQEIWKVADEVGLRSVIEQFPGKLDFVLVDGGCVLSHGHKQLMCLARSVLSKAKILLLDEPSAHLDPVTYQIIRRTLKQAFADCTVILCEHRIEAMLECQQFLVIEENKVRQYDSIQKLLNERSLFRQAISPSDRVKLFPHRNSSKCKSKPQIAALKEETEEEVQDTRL

This experiment concerns the target T1, ΔF508 mutant CFTR (Homo sapiens, UniProt P13569, DEL508-508).
T1 construct: expressed in transfected cells; host or cells: Fischer rat thyroid (FRT) cells
In words: Fluorescence (YFP halide quenching) assay of ΔF508 mutant CFTR activity in FRT cells. Details: key: fold of mean activity with forskolin alone (I− quenching rate). To be noted: FRT cells expressing ΔF508-CFTR and YFP-H148Q/I152L, rescued at 27° C. 20-24 h; forskolin 20 μM + test compound 20 μM for 20 min; I− influx rate normalized to forskolin alone. It counts as cell-based. The source says: The ΔF508 mutant CFTR activities of the CFTR modulators are detected using the Fluorescence Assay developed by Pedemonte (Pedemonte N., et al., Antihypertensive 1,4-dihydropyridines as correctors of the cystic fibrosis transmembrane conductance regulator channel gating defect caused by cystic fibrosis mutations, Mol. Pharmacol., 2005, 68, 1736-1746).
Fischer rat thyroid (FRT) cells, stably transfected with ΔF508 were retransfected with the YFP-H148Q/I152L fluorescent protein. The cells were plated (100,000 cells/well) on black 96-well microplates with clear plastic bottom (Corning Life Sciences, Acton, Mass.).
The 96-well microplates containing FRT cells expressing F508-CFTR and the halide-sensitive YFP were incubated at 27° C. for 20 to 24 h to allow rescue of the mutant protein to the plasma membrane. After incubation, cells were washed with PBS (containing 137 mM NaCl, 2.7 mM KCl, 8.1 mM Na2HPO4, 1.5 mM KH2PO4, 1 mM CaCl2, and 0.5 mM MgCl2) and stimulated for 20 min with forskolin (20 μM) and test compounds (20 μM) in a final volume of 60 μl. Microplates were then transferred to a microplate reader for CFTR activity determination. Each assay consisted of a continuous 14-s fluorescence reading (5 points per second) with 2 s before and 12 s after injection of 165 μl of an iodide-containing solution (PBS with Cl^− replaced by I^−). Final iodide concentration in the wells was 100 mM. […] To determine I^− influx rate, the final 11 s of the data for each well were fitted with an exponential function to extrapolate initial slope. CFTR activity was determined by measuring the rate of fluorescence quenching induced by extracellular addition of I^−. Data are normalized to the mean activity measured in the presence of forskolin alone.
For the compound `Cl.O=C(Nc1cncnc1OCC1CCNCC1)c1ccc(F)c(-c2c(F)cccc2F)n1` [Example 1, 6-(2,6-difluorophenyl)-5-fluoro-N-(4-(piperidin-4-ylmethoxy)pyrimidin-5-yl)picolinamide hydrochloride], the “CFTR Activity” value amounted to 1.2. Then `Cl.O=C(Nc1cncnc1OCC1CNC1)c1ccc(F)c(-c2c(F)cccc2F)n1` [Example 2, N-(4-(azetidin-3-ylmethoxy)pyrimidin-5-yl)-6-(2,6-difluorophenyl)-5-fluoropicolinamide hydrochloride], with 0.5. The result for `Cl.O=C(Nc1cncnc1OC1CCNCC1)c1ccc(F)c(-c2c(F)cccc2F)n1` [Example 3, 6-(2,6-difluorophenyl)-5-fluoro-N-(4-(piperidin-4-yloxy)pyrimidin-5-yl)picolinamide hydrochloride] reads 1.3; that for `Cl.O=C(Nc1cncnc1OC1CCNC1)c1ccc(F)c(-c2c(F)cccc2F)n1` (stereo not drawn) [Example 4, 6-(2,6-difluorophenyl)-5-fluoro-N-(4-(pyrrolidin-3-yloxy)pyrimidin-5-yl)picolinamide hydrochloride], 0.7. The result for `Cl.O=C(Nc1cncnc1OC1CCCNC1)c1ccc(F)c(-c2c(F)cccc2F)n1` (stereo not drawn) [Example 5, 6-(2,6-difluorophenyl)-5-fluoro-N-(4-(piperidin-3-yloxy)pyrimidin-5-yl)picolinamide hydrochloride] reads 0.6; that for `Cl.O=C(Nc1cncnc1OC1CCCNCC1)c1ccc(F)c(-c2c(F)cccc2F)n1` (stereo not drawn) [Example 6, N-(4-(azepan-4-yloxy)pyrimidin-5-yl)-6-(2,6-difluorophenyl)-5-fluoropicolinamide hydrochloride], 1.9.

Take `Cl.O=C(Nc1cncnc1OCC1CCCNC1)c1ccc(F)c(-c2c(F)cccc2F)n1` (stereo not drawn) [Example 7, 6-(2,6-difluorophenyl)-5-fluoro-N-(4-(piperidin-3-ylmethoxy)pyrimidin-5-yl)picolinamide hydrochloride]: the “CFTR Activity” value worked out at 0.5. The result for `Cl.O=C(Nc1cncnc1OCC1CCNC1)c1ccc(F)c(-c2c(F)cccc2F)n1` (stereo not drawn) [Example 8, 6-(2,6-difluorophenyl)-5-fluoro-N-(4-(pyrrolidin-3-ylmethoxy)pyrimidin-5-yl)picolinamide hydrochloride] reads 0.6; that for `Cl.O=C(Nc1cncnc1OC1CNC1)c1ccc(F)c(-c2c(F)cccc2F)n1` [Example 9, N-(4-(azetidin-3-yloxy)pyrimidin-5-yl)-6-(2,6-difluorophenyl)-5-fluoropicolinamide hydrochloride], 0.4; that for `Cl.NC1CCC(Oc2ncncc2NC(=O)c2ccc(F)c(-c3c(F)cccc3F)n2)CC1` (stereo not drawn) [Example 10, N-(4-(((1r,4r)-4-aminocyclohexyl)oxy)pyrimidin-5-yl)-6-(2,6-difluorophenyl)-5-fluoropicolinamide hydrochloride], 1.9.

Consider `Cl.NC1CCCC(Oc2ncncc2NC(=O)c2ccc(F)c(-c3c(F)cccc3F)n2)C1` (stereo not drawn) [Example 11, N-(4-((3-aminocyclohexyl)oxy)pyrimidin-5-yl)-6-(2,6-difluorophenyl)-5-fluoropicolinamide hydrochloride], for which the “CFTR Activity” value came to 3.0. As to `Cl.NCCCOc1ncncc1NC(=O)c1ccc(F)c(-c2c(F)cccc2F)n1` [Example 12, N-(4-(3-aminopropoxy)pyrimidin-5-yl)-6-(2,6-difluorophenyl)-5-fluoropicolinamide hydrochloride], the “CFTR Activity” value was found to be 0.7.

For the compound `CNCCCOc1ncncc1NC(=O)c1ccc(F)c(-c2c(F)cccc2F)n1.Cl` [Example 13, 6-(2,6-difluorophenyl)-5-fluoro-N-(4-(3-(methylamino)propoxy)pyrimidin-5-yl)picolinamide hydrochloride], the “CFTR Activity” value worked out at 0.5. For `CN(C)CCCOc1ncncc1NC(=O)c1ccc(F)c(-c2c(F)cccc2F)n1.Cl` [Example 14, 6-(2,6-difluorophenyl)-N-(4-(3-(dimethylamino)propoxy)pyrimidin-5-yl)-5-fluoropicolinamide hydrochloride], the “CFTR Activity” value worked out at 0.2. The result for `Cl.NCCCCOc1ncncc1NC(=O)c1ccc(F)c(-c2c(F)cccc2F)n1` [Example 15, N-(4-(4-aminobutoxy)pyrimidin-5-yl)-6-(2,6-difluorophenyl)-5-fluoropicolinamide hydrochloride] reads 0.5; that for `CNCCCCOc1ncncc1NC(=O)c1ccc(F)c(-c2c(F)cccc2F)n1.Cl` [Example 16, 6-(2,6-difluorophenyl)-5-fluoro-N-(4-(4-(methylamino)butoxy)pyrimidin-5-yl)picolinamide hydrochloride], 0.5; that for `O=C(Nc1cncnc1OCCCO)c1ccc(F)c(-c2c(F)cccc2F)n1` [Example 17, 6-(2,6-difluorophenyl)-5-fluoro-N-(4-(3-hydroxypropoxy)pyrimidin-5-yl)picolinamide], 0.2. The result for `CC(O)CCOc1ncncc1NC(=O)c1ccc(F)c(-c2c(F)cccc2F)n1` (stereo not drawn) [Example 18, 6-(2,6-difluorophenyl)-5-fluoro-N-(4-(3-hydroxybutoxy)pyrimidin-5-yl)picolinamide] reads 0.2.

Turning to `O=C(Nc1cncnc1OCCCCO)c1ccc(F)c(-c2c(F)cccc2F)n1` [Example 19, 6-(2,6-difluorophenyl)-5-fluoro-N-(4-(4-hydroxybutoxy)pyrimidin-5-yl)picolinamide], the “CFTR Activity” value was 0.3. The result for `CC(C)(O)CCCOc1ncncc1NC(=O)c1ccc(F)c(-c2c(F)cccc2F)n1` [Example 20, 6-(2,6-difluorophenyl)-5-fluoro-N-(4-((4-hydroxy-4-methylpentyl)oxy)pyrimidin-5-yl)picolinamide] reads 0.1; that for `O=C(Nc1cncnc1OCCC(O)CO)c1ccc(F)c(-c2c(F)cccc2F)n1` (stereo not drawn) [Example 21, 6-(2,6-difluorophenyl)-N-(4-(3,4-dihydroxybutoxy)pyrimidin-5-yl)-5-fluoropicolinamide], 0.05. As for `O=C(Nc1cncnc1OCC1CCOCC1)c1ccc(F)c(-c2c(F)cccc2F)n1` [Example 22, 6-(2,6-difluorophenyl)-5-fluoro-N-(4-((tetrahydro-2H-pyran-4-yl)methoxy)pyrimidin-5-yl)picolinamide], the “CFTR Activity” value is given as 0.1.

With `Cl.Nc1cc(F)c(-c2c(F)cccc2F)nc1C(=O)Nc1cncnc1OCC1CCNCC1` [Example 23, 3-amino-6-(2,6-difluorophenyl)-5-fluoro-N-(4-(piperidin-4-ylmethoxy)pyrimidin-5-yl)picolinamide hydrochloride], the “CFTR Activity” value turned out to be 2.2. Consider `Cl.Nc1cc(F)c(-c2c(F)cccc2F)nc1C(=O)Nc1cncnc1OC1CCNC1` (stereo not drawn) [Example 24, 3-amino-6-(2,6-difluorophenyl)-5-fluoro-N-(4-(pyrrolidin-3-yloxy)pyrimidin-5-yl)picolinamide hydrochloride], for which the “CFTR Activity” value turned out to be 1.9.

For the compound `Cl.Nc1cc(F)c(-c2c(F)cccc2F)nc1C(=O)Nc1cncnc1OC1CCNCC1` [Example 25, 3-amino-6-(2,6-difluorophenyl)-5-fluoro-N-(4-(piperidin-4-yloxy)pyrimidin-5-yl)picolinamide hydrochloride], the “CFTR Activity” value was determined as 3.1. The result for `Cl.Nc1cc(F)c(-c2c(F)cccc2F)nc1C(=O)Nc1cncnc1OC1CCCNCC1` (stereo not drawn) [Example 26, 3-amino-N-(4-(azepan-4-yloxy)pyrimidin-5-yl)-6-(2,6-difluorophenyl)-5-fluoropicolinamide hydrochloride] reads 4.0; that for `Cl.Nc1cc(F)c(-c2c(F)cccc2F)nc1C(=O)Nc1cncnc1OC1CCC(N)CC1` (stereo not drawn) [Example 27, 3-amino-N-(4-(((1r,4r)-4-aminocyclohexyl)oxy)pyrimidin-5-yl)-6-(2,6-difluorophenyl)-5-fluoropicolinamide hydrochloride], 4.4.

For `Cl.Nc1cc(F)c(-c2c(F)cccc2F)nc1C(=O)Nc1cncnc1OCC1CCNC1` (stereo not drawn) [Example 28], the “CFTR Activity” value is recorded as 2.3. The result for `NCC(CCl)Oc1ncncc1NC(=O)c1ccc(F)c(-c2c(F)cccc2F)n1` (stereo not drawn) [Example 29, N-(4-((1-amino-3-chloropropan-2-yl)oxy)pyrimidin-5-yl)-6-(2,6-difluorophenyl)-5-fluoropicolinamide hydrochloride] reads 1.8; that for `Cl.NCC(CCl)COc1ncncc1NC(=O)c1ccc(F)c(-c2c(F)cccc2F)n1` (stereo not drawn) [Example 30, N-(4-(3-amino-2-(chloromethyl)propoxy)pyrimidin-5-yl)-6-(2,6-difluorophenyl)-5-fluoropicolinamide hydrochloride], 1.5.
